Experimental data: PubChem BioAssay AID2060356 (Molecular Pharmacology Branch, DTP, NCI, 2025)

Tested on: PDC tumor spheroids with HUVEC/MSC, viability
Assay: Anticancer human tumor 439559-082-T-J2-PDC patient-derived colon adenocarcinoma cell line growth inhibition [TAK]
Details: for IC50: curve of first compound; for viability, T/C: stronger effect = lower value
In short: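 Drug combinations, each paired with TAK-243 or ipatasertib, were tested on multi-cell spheroids of 60% malignant cells, 25% HUVEC and 15% hMSC. Top concentrations were at or near the clinical Cmax (10 microM if undetermined), decreasing by half-log; viability is given as % test/control.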
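Further: spheroids exposed to drugs for seven days before readout.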

Compound `CC(C)n1nc(-c2ccc3oc(N)nc3c2)c2c(N)ncnc21` + CC(C)NCC(C(=O)N1CCN(c2ncnc3c2C(C)CC3O)CC1)c1ccc(Cl)cc1 has an IC50 (second compound 0.3 µM) of over 100 nM, an IC50 (second compound 0.949 µM) of over 100 nM and an IC50 (second compound 3 µM) of over 100 nM. The IC50 (second compound 9.49 µM) was over 100 nM, the IC50 (second compound 30 µM) was over 100 nM and the viability, T/C (second compound 0.3 µM, first compound 0.000316 µM) was 109%. For the same compound, the viability, T/C (second compound 0.3 µM, first compound 0.001 µM) was 98.8%, the viability, T/C (second compound 0.3 µM, first compound 0.00316 µM) was 96.5% and the viability, T/C (second compound 0.3 µM, first compound 0.01 µM) was 80.4%. It also gave a viability, T/C (second compound 0.3 µM, first compound 0.0316 µM) of 73.1%, a viability, T/C (second compound 0.3 µM, first compound 0.1 µM) of 71.2% and a viability, T/C (second compound 0.949 µM, first compound 0.000316 µM) of 106%. It also gave a viability, T/C (second compound 0.949 µM, first compound 0.001 µM) of 101%, a viability, T/C (second compound 0.949 µM, first compound 0.00316 µM) of 83% and a viability, T/C (second compound 0.949 µM, first compound 0.01 µM) of 85%. For the same compound, the viability, T/C (second compound 0.949 µM, first compound 0.0316 µM) was 76%, the viability, T/C (second compound 0.949 µM, first compound 0.1 µM) was 68% and the viability, T/C (second compound 3 µM, first compound 0.000316 µM) was 101%. For the same compound, the viability, T/C (second compound 3 µM, first compound 0.001 µM) was 91.8%, the viability, T/C (second compound 3 µM, first compound 0.00316 µM) was 80.8% and the viability, T/C (second compound 3 µM, first compound 0.01 µM) was 82%. For the same compound, the viability, T/C (second compound 3 µM, first compound 0.0316 µM) was 73.7%, the viability, T/C (second compound 3 µM, first compound 0.1 µM) was 71.8% and the viability, T/C (second compound 9.49 µM, first compound 0.000316 µM) was 89.5%. The viability, T/C (second compound 9.49 µM, first compound 0.001 µM) was 94.6%, the viability, T/C (second compound 9.49 µM, first compound 0.00316 µM) was 84.1% and the viability, T/C (second compound 9.49 µM, first compound 0.01 µM) was 78.7%. The viability, T/C (second compound 9.49 µM, first compound 0.0316 µM) was 69.9%, the viability, T/C (second compound 9.49 µM, first compound 0.1 µM) was 66.8% and the viability, T/C (second compound 30 µM, first compound 0.000316 µM) was 88.6%. It also gave a viability, T/C (second compound 30 µM, first compound 0.001 µM) of 91.1%, a viability, T/C (second compound 30 µM, first compound 0.00316 µM) of 87.8% and a viability, T/C (second compound 30 µM, first compound 0.01 µM) of 75%. It also gave a viability, T/C (second compound 30 µM, first compound 0.0316 µM) of 73.3% and a viability, T/C (second compound 30 µM, first compound 0.1 µM) of 70.3%.
